{
  "source": "patent US9402788B2",
  "about": "“Manufacture of multiple minicapsules” (Sigmoid Pharma Ltd., priority 2007, dated 2016)",
  "origin": "cited, not measured here",
  "key": {"[1]": {"settings": "HME film, clotrimazole 10% w/w"}, "[2]": {"settings": "after extrusion with EC/HM polymers; HPLC"}},
  "note": "Where a name gives a salt, the structure may show the parent alone.",
  "data": [
    {"smiles": "Clc1ccccc1C(c1ccccc1)(c1ccccc1)n1ccnc1", "note": "[clotrimazole]", "values": [
      {"measurement": "duration of prolonged release", "setting": "[1]", "value": 10, "unit": "h"},
      {"measurement": "duration of zero-order release", "setting": "[1]", "value": 6, "unit": "h"}
    ]},
    {"smiles": "CC(C)Cc1ccc(C(C)C(=O)O)cc1", "note": "(centres unmarked) [ibuprofen]", "values": [
      {"measurement": "ibuprofen amount remained after extrusion", "setting": "[2]", "value": 98.9, "unit": "%"}
    ]},
    {"smiles": "CC(C)NCC(O)COc1cccc2ccccc12", "note": "(centres unmarked) [propranolol HCl]", "values": [
      {"measurement": "aqueous solubility", "value": 50, "unit": "mg/mL"}
    ]},
    {"smiles": "Cn1c(=O)c2[nH]cnc2n(C)c1=O.O", "note": "[theophylline monohydrate]", "values": [
      {"measurement": "aqueous solubility", "value": 8.33, "unit": "mg/mL"}
    ]}
  ]
}
